Laboratory results from patent US8497376B2, “Inhibitors of c-fms kinase” (Janssen Pharmaceutica N.V., priority 2007, dated 2013).
Structures can show the parent of a compound that is named as a salt. Where two headings read alike, the source gives them in different places.

Experiments:
[1] = tested on: mouse bone-marrow derived macrophages; experiment: CSF-1-driven mouse bone-marrow derived macrophages assay (BrDU incorporation); format: cell-based; settings: CSF-1-driven proliferation, 30 hrs culture
Description: Macrophages were derived by culturing mouse bone marrow in alpha-MEM supplemented with 10% FCS and 50 ng/ml recombinant mouse CSF-1 in bacteriologic dishes. On the sixth day, macrophages were detached from dishes, washed, and resuspended to 0.05 million cells/ml in alpha-MEM containing 10% FCS. One hundred ul of cell suspension were distributed per well into 96 well culture plates. Wells were further supplemented with the addition of 50 ul media containing 15 ng/ml CSF-1, 3 uM Indomethacin, and 3× of a dilution series of test compounds. The cells were cultured for 30 hrs at 37 degrees and 5% CO2. During the final six hours, cultures were supplemented with an additional 30 ul of media containing a 1:500 dilution of bromodeoxyuridine (BrDU). At the end of the culture period, the plates were spun at 1000 RPM for 1 minute and 130 ul of media was removed with a pipet and replaced with 150 ul of fixative solution for 1 hour@room temperature. The fixative was then dispelled from the plates and the plates allowed to air dry. Incorporation of BrDU into the fixed, dried cells was quantified using a specific ELISA.

[2] = target: c-fms (Homo sapiens (Human), UniProt P07333); experiment: Autophosphorylation fluorescence polarization competition immunoassay for c-fms inhibition; format: biochemical; settings: 10 nM c-fms, 1 mM ATP; average of three independent measurements
Description: The assay buffer used was 100 mM 4-(2-hydroxyethyl)piperazine1-ethanesulfonic acid (HEPES), pH 7.5, 1 mM 1,4-dithio-DL-threitol (DTT), 0.01% (v/v) Tween-20. Compounds were diluted in assay buffer containing 4% dimethylsulfoxide (DMSO) just prior to the assay. […] The kinase reaction was initiated by adding 2 μL of 5 mM ATP (Sigma) in assay buffer. The final concentrations in the assay were 10 nM c-fms, 1 mM ATP, 5 mM MgCl2, 2% DMSO. Control reactions were ran in each plate: in positive and negative control wells, assay buffer (made 4% in DMSO) was substituted for the compound; in addition, positive control wells received 1.2 μL of 50 mM ethylenediaminetetraaceticacid (EDTA). The plates were incubated at room temperature for 45 min. At the end of the incubation, the reaction was quenched with 1.2 μL of 50 mM EDTA (EDTA was not added to the positive control wells at this point; see above). Following a 5-min incubation, each well received 10 μL of a 1:1:3 mixture of anti-phosphotyrosine antibody, 10×, PTK green tracer, 10× (vortexed), FP dilution buffer, respectively (all from PanVera, cat. # P2837). The plate was covered, incubated for 30 min at room temperature and the fluorescence polarization was read on the Analyst. The instrument settings were: 485 nm excitation filter; 530 nm emission filter; Z height: middle of well; G factor: 0.93. […] The reported IC50 values are averages of three independent measurements.

c-fms, sequence (P07333 20-972): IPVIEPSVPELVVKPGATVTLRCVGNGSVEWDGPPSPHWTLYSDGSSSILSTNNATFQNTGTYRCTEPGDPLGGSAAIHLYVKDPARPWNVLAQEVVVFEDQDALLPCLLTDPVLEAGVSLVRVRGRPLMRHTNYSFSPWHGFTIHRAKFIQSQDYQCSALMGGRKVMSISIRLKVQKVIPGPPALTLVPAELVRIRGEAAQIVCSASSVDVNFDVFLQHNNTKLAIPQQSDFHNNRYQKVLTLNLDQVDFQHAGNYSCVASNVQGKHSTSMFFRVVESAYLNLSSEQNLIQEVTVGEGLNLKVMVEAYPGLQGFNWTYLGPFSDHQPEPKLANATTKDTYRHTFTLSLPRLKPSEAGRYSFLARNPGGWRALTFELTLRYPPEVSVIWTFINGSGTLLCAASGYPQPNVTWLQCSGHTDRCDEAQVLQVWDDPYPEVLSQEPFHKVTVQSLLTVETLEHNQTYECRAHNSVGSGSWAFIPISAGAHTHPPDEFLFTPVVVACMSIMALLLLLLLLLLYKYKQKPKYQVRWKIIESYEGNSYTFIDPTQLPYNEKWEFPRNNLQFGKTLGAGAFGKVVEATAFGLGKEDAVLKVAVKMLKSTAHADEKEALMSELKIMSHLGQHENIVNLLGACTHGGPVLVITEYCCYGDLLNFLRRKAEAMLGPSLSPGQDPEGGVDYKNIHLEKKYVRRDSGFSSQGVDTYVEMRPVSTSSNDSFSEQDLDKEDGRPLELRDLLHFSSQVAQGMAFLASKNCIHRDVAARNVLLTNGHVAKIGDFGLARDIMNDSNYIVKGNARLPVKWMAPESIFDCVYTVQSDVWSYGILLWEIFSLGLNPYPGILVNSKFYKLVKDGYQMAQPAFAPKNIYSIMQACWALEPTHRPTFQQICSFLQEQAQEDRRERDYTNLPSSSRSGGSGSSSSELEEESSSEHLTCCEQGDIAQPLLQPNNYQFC

IC50 [2] [nM] | SMILES | IC50 ([1]; Mus musculus, BMDM) [nM] | IC50 ([1]; read-out: BMDM IC50) [nM]
0.86 | COC[C@@]12C=C[C@@](COC)(C[C@](O)(c3ccc(NC(=O)c4nc(C#N)c[nH]4)c(C4=CCC(C)(C)CC4)c3)C1)O2 [Example 1, 4-Cyano-1H-imidazole-2-carboxylic acid[2-(4,4-dimethyl-cyclohex-1-enyl)-4-[(3-exo)-3-hydroxy-1,5-bis-methoxymethyl-8-oxa-bicyclo[3.2.1]oct-6-en-3-yl]-phenyl]-amide] | 3.2 | –
0.65 | CC1(C)CC=C(c2cc(C3=C[C@@]4(CO)C=C[C@@](CO)(C3)O4)ccc2NC(=O)c2nc(C#N)c[nH]2)CC1 [Example 3, 4-Cyano-1H-imidazole-2-carboxylic acid[4-(1,5-bis-hydroxymethyl-8-oxa-bicyclo[3.2.1]octa-2,6-dien-3-yl)-2-(4,4-dimethyl-cyclohex-1-enyl)-phenyl]-amide] | 9.3 | –
0.72 | CC1(C)CC=C(c2cc([C@H]3C[C@]4(CO)CC[C@](CO)(C3)O4)ccc2NC(=O)c2nc(C#N)c[nH]2)CC1 [Example 4, 4-Cyano-1H-imidazole-2-carboxylic acid[4-[(3-exo)-1,5-bis-hydroxymethyl-8-oxa-bicyclo[3.2.1]oct-3-yl]-2-(4,4-dimethyl-cyclohex-1-enyl)-phenyl]-amide] | 6.6 | –
0.47 | CC1(C)CC=C(c2cc([C@@H]3C[C@]4(CO)CC[C@](CO)(C3)O4)ccc2NC(=O)c2nc(C#N)c[nH]2)CC1 [Example 5, 4-Cyano-1H-imidazole-2-carboxylic acid[4-[(3-endo)-1,5-bis-hydroxymethyl-8-oxa-bicyclo[3.2.1]oct-3-yl]-2-(4,4-dimethyl-cyclohex-1-enyl)-phenyl]-amide] | 4.7 | –
2.7 | COC[C@@]12CC[C@@](COC)(C[C@@H](c3ccc(NC(=O)c4nc(C#N)c[nH]4)c(C4=CCC(C)(C)CC4)c3)C1)O2 [Example 6, 4-Cyano-1H-imidazole-2-carboxylic acid[4-[(3-endo)-1,5-bis-methoxymethyl-8-oxa-bicyclo[3.2.1]oct-3-yl]-2-(4,4-dimethyl-cyclohex-1-enyl)-phenyl]-amide] | 5 | –
2 | COC[C@@]12CC[C@@](COC)(C[C@H](c3ccc(NC(=O)c4nc(C#N)c[nH]4)c(C4=CCC(C)(C)CC4)c3)C1)O2 [Example 7, 4-Cyano-1H-imidazole-2-carboxylic acid[4-((3-exo)-1,5-bis-methoxymethyl-8-oxa-bicyclo[3.2.1]oct-3-yl)-2-(4,4-dimethyl-cyclohex-1-enyl)-phenyl]-amide] | 3.3 | –
0.42 | CC1(C)CC=C(c2cc([C@@]3(O)C[C@]4(CO)CC[C@](CO)(C3)O4)ccc2NC(=O)c2nc(C#N)c[nH]2)CC1 [Example 8, 4-Cyano-1H-imidazole-2-carboxylic acid[2-(4,4-dimethyl-cyclohex-1-enyl)-4-[(3-exo)-3-hydroxy-1,5-bis-hydroxymethyl-8-oxa-bicyclo[3.2.1]oct-3-yl]-phenyl]-amide] | 41 | –
1.1 | CC1(C)CC=C(c2cc([C@@]3(O)C[C@]4(C)C=C[C@](C)(C3)O4)ccc2NC(=O)c2nc(C#N)c[nH]2)CC1 [Example 9, 4-Cyano-1H-imidazole-2-carboxylic acid[2-(4,4-dimethyl-cyclohex-1-enyl)-4-((3-exo)-3-hydroxy-1,5-dimethyl-8-oxa-bicyclo[3.2.1]oct-6-en-3-yl)-phenyl]-amide] | 4.8 | –
0.66 | CC1(C)CC=C(c2cc([C@@]3(O)C[C@@]4(C)O[C@@](C)(C3)[C@H](O)[C@@H]4O)ccc2NC(=O)c2nc(C#N)c[nH]2)CC1 [Example 12] | 36 | –
0.81 | CC1(C)CC=C(c2cc([C@@H]3C[C@@]4(C)O[C@@](C)(C3)[C@H](O)[C@@H]4O)ccc2NC(=O)c2nc(C#N)c[nH]2)CC1 [Example 13, 4-Cyano-1H-imidazole-2-carboxylic acid[4-(3-endo)-(6-exo,7-exo-dihydroxy-1,5-dimethyl-8-oxa-bicyclo[3.2.1]oct-3-yl)-2-(4,4-dimethyl-cyclohex-1-enyl)-phenyl]-amide] | 2.9 | –
0.72 | CC1(C)CC=C(c2nc(C3C[C@@]4(C)O[C@@](C)(C3)[C@H](O)[C@@H]4O)ccc2NC(=O)c2nc(C#N)c[nH]2)CC1 (stereo partly drawn) [Example 18, 4-Cyano-1H-imidazole-2-carboxylic acid[6-[(3-exo)-(6-exo,7-exo-dihydroxy-1,5-dimethyl-8-oxa-bicyclo[3.2.1]oct-3-yl)-2-(4,4-dimethyl-cyclohex-1-enyl)-pyridin-3-yl]-amidetrifluoroacetic acid saft and 4-Cyano-1H-imidazole-2-carboxylic acid[6-[(3-endo)-(6-exo,7-exo-dihydroxy-1,5-dimethyl-8-oxa-bicyclo[3.2.1]oct-3-yl)-2-(4,4-dimethyl-cyclohex-1-enyl)-pyridin-3-yl]-amidetrifluoroacetic acid salt] | 10 | –

Second part, the compound before the results:

SMILES | IC50 [2] [nM] | IC50 ([1]; Mus musculus, BMDM) [nM] | IC50 ([1]; read-out: BMDM IC50) [nM]
CC1(C)CC=C(c2cc([C@]3(O)C[C@@]4(CO)C=C[C@@](CO)(C3)O4)ccc2NC(=O)c2nc(C#N)c[nH]2)CC1 [Example 2, 4-Cyano-1H-imidazole-2-carboxylic acid[2-(4,4-dimethyl-cyclohex-1-enyl)-4-((3-exo)-3-hydroxy-1,5-bis-hydroxymethyl-8-oxa-bicyclo[3.2.1]oct-6-en-3-yl)-phenyl]-amide] | – | 37 | –
COC(=O)N1[C@@]2(C)C=C[C@]1(C)C[C@@](O)(c1ccc(NC(=O)c3nc(C#N)c[nH]3)c(C3=CCC(C)(C)CC3)c1)C2 [Example 10, 3-(3-exo)-[4-[(4-Cyano-1H-imidazole-2-carbonyl)-amino]-3-(4,4dimethyl-cyclohex-1-enyl)-phenyl]-(3-exo)-3-hydroxy-1,5-dimethyl-8-aza-bicyclo[3.2.1]oct-6-ene-8-carboxylic acid methyl ester] | 3.5 | 40 | –
CC1(C)CC=C(c2cc([C@@]3(O)C[C@@]4(C)O[C@@](C)(C3)[C@@H]3OC(C)(C)O[C@@H]34)ccc2NC(=O)c2nc(C#N)c[nH]2)CC1 [Example 11, 4-Cyano-1H-imidazole-2-carboxylic acid[2-(4,4-dimethyl-cyclohex-1-enyl)-4-[(3-exo)-3-hydroxy-1,5-dimethyl-6-exo,7-exo-(dimethylmethylenedioxy)-bicyclo[3.2.1]oct-3-yl]-phenyl]-amide] | 1.8 | 2.5 | –
CC1(C)CC=C(c2cc(C3C[C@](C)(CO)O[C@](C)(CO)C3)ccc2NC(=O)c2ncc(C#N)[nH]2)CC1 (stereo partly drawn) [Example 14, 4-Cyano-1H-imidazole-2-carboxylic acid[4-cis-(2-cis,6-cis-bis-hydroxymethyl-2,6-dimethyl-tetrahydro-pyran-4-yl)-2-(4,4-dimethyl-cyclohex-1-enyl)-phenyl]-amide (A) and 4-Cyano-1H-imidazole-2-carboxylic acid[4-trans-(2-cis,6-cis-bis-hydroxymethyl-2,6-dimethyl-tetrahydro-pyran-4-yl)-2-(4,4dimethyl-cyclohex-1-enyl)-phenyl]-amide (B)] | 1.1 | – | 4.7
CC1(C)CC(c2ccc(NC(=O)c3nc(C#N)c[nH]3)c(C3=CCCCC3)n2)CC(C)(C)O1 [Example 16, 4-Cyano-1H-imidazole-2-carboxylic acid[2-cyclohex-1-enyl-6-(2,2,6,6-tetramethyl-tetrahydro-pyran-4-yl)-pyridin-3-yl]-amide] | 1.4 | 8.2 | –
CC1(C)CC=C(c2nc([C@H]3C[C@@]4(C)O[C@@](C)(C3)[C@@H]3OC(C)(C)O[C@@H]34)ccc2NC(=O)c2nc(C#N)c[nH]2)CC1 [Example 17, 4-Cyano-1H-imidazole-2-carboxylic acid[6-[(3-exo)-6-exo,7-exo-(isopropylidinedioxy)-1,5-dimethyl-8-oxa-bicyclo[3.2.1]oct-3-yl]-2-(4,4-dimethyl-cyclohex-1-enyl)-pyridin-3-yl]-amide] | 4.6 | 37 | –
C[C@@H]1C2(C)C=C[C@@](C)(O2)[C@H](C)[C@@]1(O)c1ccc(NC(=O)c2nc(C#N)c[nH]2)c(C2=CCC(C)(C)CC2)c1 [Example 30, 4-Cyano-N-(2-(4,4dimethylcyclohex-1-enyl)-4-[(3-exo)-3-hydroxy-(2-endo,4-endo-dimethyl)-1,5-dimethyl-8-oxabicyclo[3.2.1]oct-6-en-3-yl)phenyl)-1H-imidazole-2-carboxamide] | 99 | – | –
